Values joined by “and” are separate entries in the source; they are usually repeats but may differ in a detail not shown here. Equal entries are not always repeated.
What was measured:
Ape1 = Ape1 (Homo sapiens, UniProt P27695); assay: Enzymatic redox assay (EMSA, AP-1 DNA binding); format: biochemical; details: for IC50: EMSA, reduced Ape1, oxidized nuclear extracts (Hey-C2 cells), AP-1 DNA probe; for activity compared with the original carboxylic acids: hydroxyethylamides of 1 and 43a
cells = assay: Growth inhibition assay (MTS); format: cell-based; details: for GI50: MTS, compound treatment 24 or 72 h, read-out: Cell Killing (GI50)
Description: Growth inhibitory data was also collected for all the compounds tested in the redox assay. Following the procedure of Fishel et al, cells were aliquoted into 96 well plates at a concentration of 2-4,000 cells/well in triplicate and allowed to adhere overnight. Cells were then treated with compound for either 24 or 72 h. 3-(4-5-Dimethylthiazol-2-yl)-5-(3-carboxymethoxyphenyl)-2-(4-sulfophenyl)-2H-tetrazolium salt (MTS) was added to the cells following compound treatment and the cells were incubated for an additional 4 hours at 37° C. After incubation with MTS the plates were measured for absorbance at 490 nm. The values were standardized to wells containing media alone.

Chain of Ape1 (P27695 whole entry): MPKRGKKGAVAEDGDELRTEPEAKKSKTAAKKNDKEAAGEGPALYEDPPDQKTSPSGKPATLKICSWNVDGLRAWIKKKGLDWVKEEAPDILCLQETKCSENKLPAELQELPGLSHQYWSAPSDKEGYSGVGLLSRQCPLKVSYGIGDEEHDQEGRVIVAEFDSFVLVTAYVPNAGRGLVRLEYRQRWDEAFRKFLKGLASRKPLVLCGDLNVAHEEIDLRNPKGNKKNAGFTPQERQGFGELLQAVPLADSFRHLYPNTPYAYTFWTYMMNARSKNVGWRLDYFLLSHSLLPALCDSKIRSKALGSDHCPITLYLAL

melting point	IC50 (Ape1)	SMILES	GI50 (cells) [µM]	cell-based activity superior to the methyl derivative 10b, factor (cells; GI50 ratio)	activity compared with the original carboxylic acids (Ape1)
	4 µM	CC1(C(=O)O)OC1C1=C(Cl)C(=O)c2ccccc2C1=O (mixture of isomers) [Compound 71, 3-(3-chloro-1,4-naphthoquinon-2-yl)-2-epoxy-2-methylpropionic acid]	10		
	5 µM	CC(CC1=C(Br)C(=O)c2ccccc2C1=O)C(=O)O (racemic) [Compound 69b, (2R/S)-3-(3-bromo-1,4-naphthoquinon-2-yl)-2-methylpropionic acid]	15		
		CCCCCCCCC/C(=C\C1=C(C)C(=O)C(OC)=C(OC)C1=O)C(=O)O [Compound 1, (E)-3-(4,5-dimethoxy-2-methyl-3,6-dioxocyclohexa-1,4-dienyl)-2-nonylpropenoic acid, reference compound]	35		
	40 µM	COC1=C(OC)C(=O)C(/C=C/C(=O)O)=C(C)C1=O [Compound 10a, (E)-3-(4,5-dimethoxy-2-methyl-3,6-dioxocyclohexa-1,4-dienyl)-propenoic acid]	250		
134 to 136 °C	3 to 15 µM and 3 µM	COC1=C(OC)C(=O)C(/C=C(\C)C(=O)O)=C(C)C1=O [Compound 10b, (E)-3-(4,5-dimethoxy-2-methyl-3,6-dioxocyclohexa-1,4-dienyl)-2-methylpropenoic acid]	130		
124 to 131 °C		CC/C(=C\C1=C(C)C(=O)C(OC)=C(OC)C1=O)C(=O)O [Compound 10c, (E)-3-(4,5-dimethoxy-2-methyl-3,6-dioxocyclohexa-1,4-dienyl)-2-ethylpropenoic acid]			
95 to 99 °C		CCC/C(=C\C1=C(C)C(=O)C(OC)=C(OC)C1=O)C(=O)O [Compound 10d, (E)-3-(4,5-dimethoxy-2-methyl-3,6-dioxocyclohexa-1,4-dienyl)-2-propylpropenoic acid]			
54 to 55 °C	3 to 15 µM and 15 µM	CCCC/C(=C\C1=C(C)C(=O)C(OC)=C(OC)C1=O)C(=O)O [Compound 10e, (E)-3-(4,5-dimethoxy-2-methyl-3,6-dioxocyclohexa-1,4-dienyl)-2-butylpropenoic acid]	85		
183 to 185 °C	2.5 µM	COC1=C(OC)C(=O)C(/C=C(\C)C(=O)O)=C(Cl)C1=O [Compound 23, (E)-3-(2-chloro-4,5-dimethoxy-3,6-dioxocyclohexa-1,4-dienyl)-2-methylpropenoic acid]	45	3	
	2.5 µM	C/C(=C\C1=CC(=O)c2ccccc2C1=O)C(=O)O [Compound 30a, (E)-3-(1,4-naphthoquinon-2-yl)-2-methylpropenoic acid]	20		
156 to 160 °C		CCC/C(=C\C1=CC(=O)c2ccccc2C1=O)C(=O)O [Compound 30b, (E)-3-(1,4-naphthoquinon-2-yl)-2-propylpropenoic acid]			
195 to 196 °C	15 µM	CC1=C(/C=C(\C)C(=O)O)C(=O)c2ccccc2C1=O [Compound 35a, (E)-3-(3-methyl-1,4-naphthoquinon-2-yl)-2-methylpropenoic acid]	45		
119 to 121 °C	25 µM	CCCC/C(=C\C1=C(C)C(=O)c2ccccc2C1=O)C(=O)O [Compound 35b, (E)-3-(3-methyl-1,4-naphthoquinon-2-yl)-2-butylpropenoic acid]	40		
64 to 66 °C		CCCCCCCCC/C(=C\C1=C(C)C(=O)c2ccccc2C1=O)C(=O)O [Compound 35c, (E)-3-(3-methyl-1,4-naphthoquinon-2-yl)-2-nonylpropenoic acid]			
	2 µM	C/C(=C\C1=C(Br)C(=O)c2ccccc2C1=O)C(=O)O [Compound 39a, (E)-3-(3-bromo-1,4-naphthoquinon-2-yl)-2-methylpropenoic acid]	12.5		
145 °C (dec.)		CCC/C(=C\C1=C(Br)C(=O)c2ccccc2C1=O)C(=O)O [Compound 39b, (E)-3-(3-bromo-1,4-naphthoquinon-2-yl)-2-propylpropenoic acid]			
229 to 230 °C	1 µM	C/C(=C\C1=C(Cl)C(=O)c2ccccc2C1=O)C(=O)O [Compound 43a, (E)-3-(3-chloro-1,4-naphthoquinon-2-yl)-2-methylpropenoic acid]	15		
164 °C (dec.)		CCC/C(=C\C1=C(Cl)C(=O)c2ccccc2C1=O)C(=O)O [Compound 43b, (E)-3-(3-chloro-1,4-naphthoquinon-2-yl)-2-propylpropenoic acid]			
	4 µM	C/C(=C\C1=C(F)C(=O)c2ccccc2C1=O)C(=O)O [Compound 52, (E)-3-(3-fluoro-1,4-naphthoquinon-2-yl)-2-methylpropenoic acid]	50		
205 °C (dec.)	0.5 µM	COC1=C(/C=C(\C)C(=O)O)C(=O)c2ccccc2C1=O [Compound 55, (E)-3-(3-methoxy-1,4-naphthoquinon-2-yl)-2-methylpropenoic acid]	40		
195 to 196 °C	1 µM	CSC1=C(/C=C(\C)C(=O)O)C(=O)c2ccccc2C1=O [Compound 58, (E)-3-(3-methylsulfanyl-1,4-naphthoquinon-2-yl)-2-methylpropenoic acid]	30		
147 to 148 °C	10 µM	COCC/C(=C\C1=C(C)C(=O)c2ccccc2C1=O)C(=O)O [Compound 62a, (E)-3-(3-methyl-1,4-naphthoquinon-2-yl)-2-methoxyethylpropenoic acid]	30		
168 to 172 °C	0.5 µM	COCC/C(=C\C1=C(Br)C(=O)c2ccccc2C1=O)C(=O)O [Compound 62b, (E)-3-(3-bromo-1,4-naphthoquinon-2-yl)-2-methoxyethylpropenoic acid]	25		
	10 µM	CCCCCCCCC/C(=C\C1=C(C)C(=O)C(OC)=C(OC)C1=O)C(=O)NCCO [Compound 72, (E)-N-(2-hydroxyethyl)-3-(3,4-dimethoxy-2-methyl-3,6-dioxocyclohexa-1,4-dienyl)-2-nonylpropenamide]	35		comparable in activity to the original carboxylic acids
		C/C(=C\C1=C(Cl)C(=O)c2ccccc2C1=O)C(=O)NCCO [Compound 73, (E)-N-(2-hydroxyethyl)-3-(3-chloro-1,4-dioxonaphthoquinon-2-yl)-2-methylpropenamide]	7.5		comparable in activity to the original carboxylic acids
	1 µM	COC(=O)/C(C)=C/C1=C(Cl)C(=O)c2ccccc2C1=O [Compound E-44a]	17.5		
	2 µM	COC(=O)/C(C)=C\C1=C(Cl)C(=O)c2ccccc2C1=O [Compound Z-44a, Methyl (2Z)-3-(3-chloro-1,4-naphthoquinon-2-yl)-2-methylpropenoate]	20		

SMILES	melting point	IC50 (Ape1)	GI50 (cells) [µM]	cell-based activity superior to the methyl derivative 10b, factor (cells; GI50 ratio)	activity compared with the original carboxylic acids (Ape1)
C[C@@H]1NC(=O)N[C@@H]1CCCCCC(=O)NCCCCCCNC(=O)OC(C)(C)C (hydrate or solvate) [Compound 111, N—(N′-tert-butoxycarbonyl-6-aminohexyl)-6-[(4R,5S)-5-methyl-imidazolidin-2-on-4-yl]hexanamide]	85 to 87 °C				

Reference: US9089605B2, “Quinone derivatives, pharmaceutical compositions, and uses thereof” (Indiana University Research and Technology Corporation, priority 2007, dated 2015)
